According to article PMC10746543, “Design principles for cyclin K molecular glue degraders” (Nature Chemical Biology, 2023):
“And” between values parts separate entries of the source, which are not always exact repeats. Identical values can stand only once. Like-named read-outs stand apart in the source and are kept apart here.

Key:
[1] = test system: cyclin K–eGFP degradation reporter; test: Cyclin K reporter stability analysis (dual-color cyclin K–eGFP reporter); assay type: cell-based, human; conditions: source data sheet correlations; read-out: DC50
Summary of the method: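 First, reporter-bearing HEK293T–Cas9 cells are plated at 1 × 10^6 ml^−1. Next, drug or vehicle is added for 5 h. Finally, geometric-mean eGFP and mCherry signals of round, mCherry-positive cells are measured cytometrically, and their ratio is referenced to the DMSO average.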

[2] = molecular target: CDK12–cyclin K (Homo sapiens, UniProt Q9NYV4); test: Lanthascreen kinase binding assay, CDK12; conditions: for Lanthascreen raw signal, sheet CDK12: series r37, duplicates
Chain of CDK12–cyclin K (Q9NYV4 713-1052): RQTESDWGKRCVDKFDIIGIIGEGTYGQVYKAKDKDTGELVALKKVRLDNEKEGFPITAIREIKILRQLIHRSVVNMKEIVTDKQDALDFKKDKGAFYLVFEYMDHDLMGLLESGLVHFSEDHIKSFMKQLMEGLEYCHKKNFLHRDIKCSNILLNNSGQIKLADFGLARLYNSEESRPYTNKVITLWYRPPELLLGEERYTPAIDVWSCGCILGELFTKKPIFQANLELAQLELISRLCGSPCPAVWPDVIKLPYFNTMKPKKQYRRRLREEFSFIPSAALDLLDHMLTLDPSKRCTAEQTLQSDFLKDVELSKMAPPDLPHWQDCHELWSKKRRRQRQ
Chain of CDK12–cyclin K (O75909 1-267 partner limits assumed): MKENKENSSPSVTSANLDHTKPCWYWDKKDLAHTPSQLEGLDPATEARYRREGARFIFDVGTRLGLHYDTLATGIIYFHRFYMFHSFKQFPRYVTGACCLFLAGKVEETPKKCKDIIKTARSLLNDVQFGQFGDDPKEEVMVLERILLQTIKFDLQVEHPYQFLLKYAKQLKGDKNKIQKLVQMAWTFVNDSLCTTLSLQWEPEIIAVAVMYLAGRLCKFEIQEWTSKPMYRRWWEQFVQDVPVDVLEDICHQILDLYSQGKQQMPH
Experimental: (§1) Lanthascreen experiments were performed using commercially available reagents (Thermo Fisher) and according to the manufacturer’s instructions.

[3] = molecular target: T1, CDK9–cyclin T (Homo sapiens, UniProt P50750); test: Lanthascreen kinase binding assay, CDK9; conditions: for Lanthascreen TR-FRET signal (raw ratio), sheet CDK9: third titration set (r25), duplicates
T1 construct: purchased Thermo Fisher
T1 sequence (P50750 whole entry): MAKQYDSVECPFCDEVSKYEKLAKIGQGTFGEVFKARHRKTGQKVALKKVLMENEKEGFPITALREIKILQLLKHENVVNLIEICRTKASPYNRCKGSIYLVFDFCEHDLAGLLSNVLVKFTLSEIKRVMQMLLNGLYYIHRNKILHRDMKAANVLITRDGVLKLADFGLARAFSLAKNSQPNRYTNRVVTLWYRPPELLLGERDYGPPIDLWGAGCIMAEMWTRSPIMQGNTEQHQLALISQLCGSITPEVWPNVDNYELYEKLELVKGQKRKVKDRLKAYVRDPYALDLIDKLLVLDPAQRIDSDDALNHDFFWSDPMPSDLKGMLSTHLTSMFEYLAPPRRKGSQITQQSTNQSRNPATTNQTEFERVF
T1 sequence (O60563 whole entry partner): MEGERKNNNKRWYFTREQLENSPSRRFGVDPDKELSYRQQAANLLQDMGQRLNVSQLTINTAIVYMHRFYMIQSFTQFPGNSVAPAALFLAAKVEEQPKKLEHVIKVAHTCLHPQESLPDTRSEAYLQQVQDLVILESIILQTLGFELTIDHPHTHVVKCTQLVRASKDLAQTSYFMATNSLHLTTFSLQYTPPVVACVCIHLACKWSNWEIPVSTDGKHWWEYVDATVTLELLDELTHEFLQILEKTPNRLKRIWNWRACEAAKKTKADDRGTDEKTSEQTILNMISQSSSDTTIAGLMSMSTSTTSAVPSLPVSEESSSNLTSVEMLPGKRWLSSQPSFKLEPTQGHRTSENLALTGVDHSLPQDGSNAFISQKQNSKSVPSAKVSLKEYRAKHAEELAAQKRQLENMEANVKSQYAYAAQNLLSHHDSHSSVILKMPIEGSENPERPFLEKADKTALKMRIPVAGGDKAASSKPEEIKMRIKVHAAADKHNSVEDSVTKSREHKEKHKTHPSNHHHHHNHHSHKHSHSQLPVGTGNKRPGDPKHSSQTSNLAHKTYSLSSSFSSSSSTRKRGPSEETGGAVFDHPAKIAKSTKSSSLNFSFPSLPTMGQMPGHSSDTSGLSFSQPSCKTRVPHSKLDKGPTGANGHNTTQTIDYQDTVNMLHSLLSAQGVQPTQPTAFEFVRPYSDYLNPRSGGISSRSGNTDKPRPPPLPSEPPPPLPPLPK
Experimental: as §1

[4] = molecular target: T2, CDK2–cyclin A (Homo sapiens, UniProt P24941); test: Lanthascreen kinase binding assay, CDK2; conditions: for Lanthascreen signal, sheet CDK2: raw replicates, experiment r36-r46
T2 construct: purchased Thermo Fisher
Experimental: as §1

[5] = molecular target: T3, CDK12–cyclin K and DDB1 (Homo sapiens, UniProt Q16531+Q9NYV4, K965R); test: TR-FRET ternary complex formation assay (compound titration); assay type: binding
T3 construct: His6–CDK12 (a.a. 713–1,052); full-length or beta-propeller B domain deletion (ΔBPB: a.a. 396–705 deleted) constructs of His6–DDB1ΔBPB, StrepII–Avi–DDB1, or His6–Spy–DDB1; made in house; host or cells: Trichoplusia ni High Five insect cells (baculovirus)
T3 sequence (Q9NYV4 713-1052 K965R): as the sequence (Q9NYV4 713-1052) above, with K253R counted along it
T3 sequence (O75909 1-267 partner): as the sequence (O75909 1-267 partner limits assumed) above
T3 sequence (Q16531 whole entry): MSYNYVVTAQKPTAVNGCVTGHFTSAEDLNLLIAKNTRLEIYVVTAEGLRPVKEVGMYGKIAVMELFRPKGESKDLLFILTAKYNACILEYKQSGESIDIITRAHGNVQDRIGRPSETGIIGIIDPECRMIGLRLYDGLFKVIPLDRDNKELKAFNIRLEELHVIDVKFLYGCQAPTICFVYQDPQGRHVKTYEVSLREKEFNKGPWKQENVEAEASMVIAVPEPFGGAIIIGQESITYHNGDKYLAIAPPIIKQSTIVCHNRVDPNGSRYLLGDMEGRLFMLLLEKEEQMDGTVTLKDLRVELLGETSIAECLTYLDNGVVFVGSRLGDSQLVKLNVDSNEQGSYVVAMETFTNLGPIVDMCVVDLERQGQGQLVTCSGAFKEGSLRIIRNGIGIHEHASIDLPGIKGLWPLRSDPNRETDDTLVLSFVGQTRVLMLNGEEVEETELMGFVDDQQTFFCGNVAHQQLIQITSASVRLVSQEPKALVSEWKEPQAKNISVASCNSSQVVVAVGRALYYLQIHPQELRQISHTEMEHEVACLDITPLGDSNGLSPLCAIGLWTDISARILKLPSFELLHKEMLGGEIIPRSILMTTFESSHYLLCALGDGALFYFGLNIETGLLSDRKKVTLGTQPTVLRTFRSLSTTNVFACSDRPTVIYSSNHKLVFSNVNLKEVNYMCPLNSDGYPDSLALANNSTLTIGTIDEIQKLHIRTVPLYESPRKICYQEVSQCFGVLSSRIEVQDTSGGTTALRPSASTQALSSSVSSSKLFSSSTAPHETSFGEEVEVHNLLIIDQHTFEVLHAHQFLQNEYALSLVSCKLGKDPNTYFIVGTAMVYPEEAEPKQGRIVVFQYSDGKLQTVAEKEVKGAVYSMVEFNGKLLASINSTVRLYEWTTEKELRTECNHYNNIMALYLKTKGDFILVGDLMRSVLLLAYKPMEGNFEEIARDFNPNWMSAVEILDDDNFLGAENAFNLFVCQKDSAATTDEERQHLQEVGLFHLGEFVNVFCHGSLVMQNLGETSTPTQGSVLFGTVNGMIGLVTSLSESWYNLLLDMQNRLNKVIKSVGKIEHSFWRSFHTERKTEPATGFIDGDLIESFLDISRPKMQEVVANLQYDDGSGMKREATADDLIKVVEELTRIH
Summary of the method: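 Background fluorescence is reduced by reading 70 μs after excitation, and complex formation is followed as the 520:490 nm fluorescence ratio.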

[6] = test system: HEK293T cells; test: Drug sensitivity assay (CellTiter-Glo viability) with or without MLN4924 pretreatment; assay type: cell-based, human; conditions: for EC50: Homo sapiens, HEK-293T
Summary of the method: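 First, cells (HEK293T–Cas9, 0.15 × 10^6 ml^−1) are exposed to DMSO or 100 nM MLN4924. Next, drugs follow at 2 h. Finally, CellTiter-Glo is read at day 3 and normalised to DMSO.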

- DC50 [1]: 3120 nM
- IC50 ([2]; Supplementary Table 2, read-out: Lanthascreen IC50 [nM] CDK12): 2860 nM
- Lanthascreen raw signal, sheet CDK12 ([2]; compound 0.038147 nM): 0.01384 and 0.01435
- Lanthascreen raw signal, sheet CDK12 ([2]; compound 0.152588 nM): 0.01397 and 0.0142
- Lanthascreen raw signal, sheet CDK12 ([2]; compound 0.610352 nM): 0.015 and 0.01469
- Lanthascreen raw signal, sheet CDK12 ([2]; compound 9.76563 nM): 0.01433 and 0.01471
- Lanthascreen raw signal, sheet CDK12 ([2]; compound 39.0625 nM): 0.01481 and 0.01445
- Lanthascreen raw signal, sheet CDK12 ([2]; compound 156.25 nM): 0.01408 and 0.01362
- Lanthascreen raw signal, sheet CDK12 ([2]; compound 625 nM): 0.01314 and 0.0125
- Lanthascreen raw signal, sheet CDK12 ([2]; compound 2500 nM): 0.01076 and 0.01056
- Lanthascreen raw signal, sheet CDK12 ([2]; compound 10000 nM): 0.008221 and 0.008078
- IC50 ([3]; Supplementary Table 2, read-out: Lanthascreen IC50 [nM] CDK9): 953 nM
- Lanthascreen TR-FRET signal (raw ratio), sheet CDK9 ([3]; compound 0.038147 nM): 0.01926 and 0.02033
- Lanthascreen TR-FRET signal (raw ratio), sheet CDK9 ([3]; compound 0.152588 nM): 0.01912 and 0.02064
- Lanthascreen TR-FRET signal (raw ratio), sheet CDK9 ([3]; compound 0.610352 nM): 0.01926 and 0.02032
- Lanthascreen TR-FRET signal (raw ratio), sheet CDK9 ([3]; compound 9.76563 nM): 0.01956 and 0.02095
- Lanthascreen TR-FRET signal (raw ratio), sheet CDK9 ([3]; compound 39.0625 nM): 0.01859 and 0.0203
- Lanthascreen TR-FRET signal (raw ratio), sheet CDK9 ([3]; compound 156.25 nM): 0.01696 and 0.01861
- Lanthascreen TR-FRET signal (raw ratio), sheet CDK9 ([3]; compound 625 nM): 0.01333 and 0.0154
- Lanthascreen TR-FRET signal (raw ratio), sheet CDK9 ([3]; compound 2500 nM): 0.009112 and 0.01043
- Lanthascreen TR-FRET signal (raw ratio), sheet CDK9 ([3]; compound 10000 nM): 0.007018 and 0.007122
- Lanthascreen signal, sheet CDK2 ([4]; Compound 0.038147 nM): 0.01393 and 0.01328
- Lanthascreen signal, sheet CDK2 ([4]; Compound 0.152588 nM): 0.01386 and 0.01382
- Lanthascreen signal, sheet CDK2 ([4]; Compound 0.610352 nM): 0.01425 and 0.01382
- Lanthascreen signal, sheet CDK2 ([4]; Compound 9.76563 nM): 0.01432 and 0.01375
- Lanthascreen signal, sheet CDK2 ([4]; Compound 39.0625 nM): 0.01417 and 0.01371
- Lanthascreen signal, sheet CDK2 ([4]; Compound 156.25 nM): 0.01414 and 0.0141
- Lanthascreen signal, sheet CDK2 ([4]; Compound 625 nM): 0.01356 and 0.01358
- Lanthascreen signal, sheet CDK2 ([4]; Compound 2500 nM): 0.0127 and 0.009084
- Lanthascreen signal, sheet CDK2 ([4]; Compound 10000 nM): 0.01132 and 0.011
- IC50 ([4]; Lanthascreen, average, Extended Data Fig. 8, read-out: CDK2 IC50): > 10000 nM
- IC50 ([4]; Supplementary Table 2, read-out: Lanthascreen IC50 [nM] CDK2): > 10000 nM
- TR-FRET signal at compound concentration 4.68 nM ([5]; compound concentration 4.68 nM, raw replicate titration data): 0.1432 and 0.1661
- TR-FRET signal at compound concentration 21.6 nM ([5]; compound concentration 21.6 nM, raw replicate titration data): 0.2041 and 0.2174
- TR-FRET signal at compound concentration 36 nM ([5]; compound concentration 36 nM, raw replicate titration data): 0.3026 and 0.3362
- TR-FRET signal at compound concentration 79.2001 nM ([5]; compound concentration 79.2001 nM, raw replicate titration data): 0.4985 and 0.5183
- TR-FRET signal at compound concentration 158.4 nM ([5]; compound concentration 158.4 nM, raw replicate titration data): 0.7975 and 0.8115
- TR-FRET signal at compound concentration 309.6 nM ([5]; compound concentration 309.6 nM, raw replicate titration data): 1.104 and 1.124
- TR-FRET signal at compound concentration 626.401 nM ([5]; compound concentration 626.401 nM, raw replicate titration data): 1.537 and 1.587
- TR-FRET signal at compound concentration 1252.8 nM ([5]; compound concentration 1252.8 nM, raw replicate titration data): 1.789 and 1.917
- TR-FRET signal at compound concentration 2448 nM ([5]; compound concentration 2448 nM, raw replicate titration data): 1.994 and 2.074
- TR-FRET signal at compound concentration 9936.01 nM ([5]; compound concentration 9936.01 nM, raw replicate titration data): 2.1 and 2.149
- TR-FRET signal at compound concentration 20016 nM ([5]; compound concentration 20016 nM, raw replicate titration data): 2.044 and 2.1355
- DDB1–CDK12 complex formation, result in words ([5]; in vitro TR-FRET): poorer glues
- EC50 ([5]; sheet MOESM7, read-out: log TR-FRET EC50 (converted)): 299 nM
- EC50 ([5]; source data sheet correlations, read-out: TR-FRET EC50): 299 nM
Structure (SMILES): Cn1cc(-n2cnc3c(NCc4ccc(-c5ccccn5)cc4)nc(N4CCOCC4)nc32)cn1 [DS21]
- EC50 ([6]; Supplementary Fig. 5, HEK293T, CellTiter Glo, 72h, pre-treatment with 100 nM MLN4924, read-out: Viability EC50, with MLN4924): 4860 nM
- EC50 ([6]; Supplementary Table 2, HEK293T viability, 72 h, compound alone, read-out: Cellular assays EC50): 4940 nM
- Toxicity rescue ([6]; Supplementary Table 2, MLN4924-mediated cytotoxicity rescue, 10 µM used where n.d.): 102%
